Assay [1] concerns the target anti-polymyxin B mouse IgM monoclonal antibody (clone 45). The assay is classed as binding. To be noted: SPR; for Kd: Biacore T200, 25°C, HBS-EP+, 1:1 kinetic fit or steady-state.
The subject of the next assay is P. aeruginosa ATCC 27853. Briefly: MIC by broth microdilution. To be noted: CaMHB, 18 h, 37°C. The assay is classed as cell-based.
The test system of assay [2] is P. aeruginosa FADDI-PA001. As to the kind of experiment: MIC by broth microdilution. The assay is classed as cell-based. To be noted: CaMHB, 18 h, 37°C.
The test system of assay [3] is P. aeruginosa FADDI-PA025. As to the kind of experiment: MIC by broth microdilution. The format is cell-based. To be noted: CaMHB, 18 h, 37°C.
Assay [4] has as its system P. aeruginosa FADDI-PA070. Briefly: MIC by broth microdilution. The format is cell-based. To be noted: CaMHB, 18 h, 37°C.
The subject of assay [5] is P. aeruginosa FADDI-PA060. As to the kind of experiment: MIC by broth microdilution. The assay is classed as cell-based. To be noted: CaMHB, 18 h, 37°C.
Assay [6] has as its system P. aeruginosa FADDI-PA090. As to the kind of experiment: MIC by broth microdilution. The assay is classed as cell-based. To be noted: CaMHB, 18 h, 37°C.
A further assay relates to A. baumannii ATCC 19606. As to the kind of experiment: MIC by broth microdilution. The assay is classed as cell-based. To be noted: CaMHB, 18 h, 37°C.
A further assay has as its system A. baumannii FADDI-AB110. Briefly: MIC by broth microdilution. The assay is classed as cell-based. To be noted: CaMHB, 18 h, 37°C.
The next assay has as its system A. baumannii ATCC 17978. Briefly: MIC by broth microdilution. The assay is classed as cell-based. To be noted: CaMHB, 18 h, 37°C.
The next assay deals with A. baumannii FADDI-AB156. Briefly: MIC by broth microdilution. The format is cell-based. To be noted: CaMHB, 18 h, 37°C.
Another assay concerns A. baumannii FADDI-AB167. Briefly: MIC by broth microdilution. The assay is classed as cell-based. To be noted: CaMHB, 18 h, 37°C.
In assay [7] the test system is K. pneumoniae FADDI-KP032. As to the kind of experiment: MIC by broth microdilution. The assay is classed as cell-based. To be noted: CaMHB, 18 h, 37°C.
Assay [8] concerns K. pneumoniae FADDI-KP027. Briefly: MIC by broth microdilution. The format is cell-based. To be noted: CaMHB, 18 h, 37°C.
In assay [9] the test system is K. pneumoniae FADDI-KP003. As to the kind of experiment: MIC by broth microdilution. The assay is classed as cell-based. To be noted: CaMHB, 18 h, 37°C.
Assay [10] concerns K. pneumoniae FADDI-KP012. As to the kind of experiment: MIC by broth microdilution. To be noted: CaMHB, 18 h, 37°C. The assay is classed as cell-based.
A further assay concerns E. cloacae FADDI-EC006. Briefly: MIC by broth microdilution. The format is cell-based. To be noted: CaMHB, 18 h, 37°C.
The subject of the next assay is E. cloacae FADDI-EC001. Briefly: MIC by broth microdilution. The format is cell-based. To be noted: CaMHB, 18 h, 37°C.
The subject of a further assay is E. cloacae FADDI-EC003. Briefly: MIC by broth microdilution. The assay is classed as cell-based. To be noted: CaMHB, 18 h, 37°C.

Experimental findings from paper PMC5321607 (ACS infectious diseases, 2016) are described below.

In the case of “Octanoyl-Dab-Thr-Dab-Dab ^*-Dab-D-Phe-Leu-Dab-Dab-Thr ^* [Polymyxin B]”, the affinity in assay [1], expressed as Kd, was 260 nM. In addition, the minimal inhibitory concentration (MIC) is 1 µg/mL in the assay with P. aeruginosa ATCC 27853; 1 µg/mL in assay [2]; 1 µg/mL in assay [3]; 32 µg/mL in assay [4]; more than 32 µg/mL in assay [5]; 4 µg/mL in assay [6]. In addition, the MIC was 1 µg/mL with A. baumannii ATCC 19606; 0.5 µg/mL in the assay with A. baumannii FADDI-AB110; 1 µg/mL in the assay with A. baumannii ATCC 17978; 8 µg/mL in the assay on A. baumannii FADDI-AB156; 16 µg/mL in the assay with A. baumannii FADDI-AB167; less than 0.125 µg/mL in [7]. Also, the MIC in assay [8] is 128 µg/mL; in [9] it was more than 32 µg/mL; in [10] it was 16 µg/mL; against E. cloacae FADDI-EC006 it was 0.5 µg/mL; in the assay with E. cloacae FADDI-EC001, 0.25 µg/mL; against E. cloacae FADDI-EC003, 0.5 µg/mL.

Consider “Octanoyl-Dab-Thr-Dab-Dab ^*-Dab-D-Leu-Leu-Dab-Dab-Thr ^* [Colistin]”, for which binding in assay [1] was characterised by a dissociation constant (Kd) of 560 nM. For the same substance, the “reduction in mAb binding affinity” value in assay [1] (compared to polymyxin B (FADDI-206/207: polymyxin B and colistin)) was 2 fold. In addition, the MIC in the assay on P. aeruginosa ATCC 27853 was 1 µg/mL; in assay [2], 1 µg/mL; in assay [3] it was 2 µg/mL; in [4], more than 128 µg/mL; in [5], more than 128 µg/mL; in assay [6], 8 µg/mL. Besides, the MIC was 1 µg/mL in the assay with A. baumannii ATCC 19606; 0.5 µg/mL against A. baumannii FADDI-AB110; 0.5 µg/mL in the assay on A. baumannii ATCC 17978; 16 µg/mL in the assay on A. baumannii FADDI-AB156; 8 µg/mL against A. baumannii FADDI-AB167; 1 µg/mL in assay [7]. Besides, the MIC in assay [8] was more than 128 µg/mL; in [9], 128 µg/mL; in assay [10], 32 µg/mL; against E. cloacae FADDI-EC006, less than 0.125 µg/mL; in the assay with E. cloacae FADDI-EC001 it was 0.25 µg/mL; against E. cloacae FADDI-EC003, less than 0.125 µg/mL.
